From patent US20070105840A1, “Pyrrolo-dihydroisoquinoline derivatives as pde10 inhibitors” (Altana Pharma AG, priority 2003, published 2007)

melting point [°C] | SMILES
236 to 237 | COc1cc2c(cc1OC)-c1c(C#N)c(-c3cn(S(=O)(=O)N(C)C)c4ccccc34)c(C)n1C(C)C2 (centres unmarked) [Example 54, 3-(1-Cyano-8,9-dimethoxy-3,5-dimethyl-5,6-dihydro-pyrrolo[2,1-a]isoquinolin-2-yl)-indole-1-sulfonic acid dimethylamide]
204 to 207 | COc1cc2c(cc1OC)-c1c(C#N)c(-c3ccc(-c4nn[nH]n4)cc3)c(C)n1C(C)C2 (centres unmarked) [Example 57, 8,9-Dimethoxy-3,5-dimethyl-2-[4-(2H-tetrazol-5-yl)-phenyl]-5,6-dihydro-pyrrolo[2,1-a]isoquinoline-1-carbonitrile]
223 to 225 | COc1cc2c(cc1OC)-c1c(C#N)c(-c3ccc(NS(=O)(=O)N4CCOCC4)cc3)c(C)n1C(C)C2 (centres unmarked) [Example 58, Morpholine-4-sulfonic acid [4-(1-cyano-8,9-dimethoxy-3,5-dimethyl-5,6-dihydro-pyrrolo[2,1-a]isoquinolin-2-yl)-phenyl]-amide]
257 to 259 | COc1cc2c(cc1OC)-c1c(C#N)c(-c3ccc(NS(C)(=O)=O)cc3)c(C)n1C(C)C2 (centres unmarked) [Example 59, N-[4-(1-Cyano-8,9-dimethoxy-3,5-dimethyl-5,6-dihydro-pyrrolo[2,1-a]isoquinolin-2-yl)-phenyl]-methanesulfonamide]

Continued, compound first:

SMILES | melting point [°C]
CCOc1cc2c(cc1OC)-c1c(C#N)c(-c3cc(C)c(O)c(C)c3)c(C)n1C(C)C2 (centres unmarked) [Example 53, 8-Ethoxy-2-(4-hydroxy-3,5-dimethyl-phenyl)-9-methoxy-3,5-dimethyl-5,6-dihydro-pyrrolo[2,1-a]isoquinoline-1-carbonitrile] | 232 to 234
COC(=O)c1c(-c2cc(C)c(O)c(C)c2)c(C)n2c1-c1cc(OC)c(OC)cc1CC2C (centres unmarked) [Example 65, 2-(4-Hydroxy-3,5-dimethyl-phenyl)-8,9-dimethoxy-3,5-dimethyl-5,6-dihydro-pyrrolo[2,1-a]isoquinoline-1-carboxylic acid methyl ester] | 177 to 179
COC(=O)c1c(-c2cn(S(=O)(=O)c3ccc(C)cc3)c3ccccc23)c(C)n2c1-c1cc(OC)c(OC)cc1CC2C (centres unmarked) [Example 66, 8,9-Dimethoxy-3,5-dimethyl-2-[1-(toluene-4-sulfonyl)-1H-indol-3-yl]-5,6-dihydro-pyrrolo[2,1-a]isoquinoline-1-carboxylic acid methyl ester] | 177 to 179
COc1cc2c(cc1OC)-c1c(C)c(-c3cc(C)c(O)c(C)c3)c(C)n1CC2 [Example 68, 4-(8,9-Dimethoxy-1,3-dimethyl-5,6-dihydro-pyrrolo[2,1-a]isoquinolin-2-yl)-2,6-dimethyl-phenol] | 183 to 185
